Structures are written as SMILES.

Assay type in all cases: cell-based
The subject of experiment [1] is AU565 human breast cancer cell line. Nature of the experiment: Cell growth inhibition assay (methylene blue), AU565. The settings on record: continuous presence of compound 4 or 7 days, at least three experiments, read-out: Average IC50. The source says: (§1) The following human breast cancer cell lines were obtained from the ATCC. Cells were maintained according to ATCC-recommended culture conditions. AU565 (ATCC Catalog No. ATCC Catalog. No. CRL-2351), BT-20 (ATCC Catalog No. HTB-19), MCF7 (ATCC Catalog No. HTB22), MDA-MB-231 (ATCC Catalog No. HTB-26), MDA-MB-435 (ATCC Catalog No. HTB-129), MDA-MB-468 (ATCC Catalog No. HTB-132), HCC38 (ATCC Catalog No. CRL-2314), HCC70 (ATCC Catalog No. CRL-2315), HCC1143 (ATCC Catalog No. CRL-2321), HCC1428 (ATCC Catalog No. CRL-2327), HCC1500 (ATCC Catalog No. CRL-2329), HCC1806 (ATCC Catalog No. CRL-2335), HCC1954 (ATCC Catalog No. CRL-2338), HCC2218 (ATCC Catalog No. CRL-2343), UACC-812 (ATCC Catalog No. CRL-1897), UACC-893 (ATCC Catalog No. CRL-1902), ZR-75-1 (ATCC Catalog No. CRL-1500), ZR-75-30 (ATCC Catalog No. CRL-1504).
(§2) Cultured human breast cancer cells were placed in 96-well plates and grown in the continuous presence of test compounds for 4 or 7 days. To expose the cells to test compounds for 7 days, medium was replaced with fresh medium containing compounds after 4 days of exposure and cells were incubated for 3 additional days. Cell growth was assessed using modifications (Amin et al., Cancer Res., 47:6040-6045, 1987; incorporated herein by reference) of a methylene blue-based microculture assay (Finlay et al., Anal. Biochem., 139:272-277, 1984; incorporated herein by reference).
(§3) To investigate the possible expression of PgP by the cell lines used in this study, the antiproliferative effects of paclitaxel were determined in the presence and absence of verapamil, a known inhibitor of PgP.

Experiment [2] deals with BT-20 human breast cancer cell line. Nature of the experiment: Cell growth inhibition assay (methylene blue), BT-20. To be noted: continuous presence of compound 4 or 7 days, at least three experiments, read-out: Average IC50.
Text: as §1, §2, §3

Experiment [3] deals with MCF-7 human breast cancer cell line. Nature of the experiment: Cell growth inhibition assay (methylene blue), MCF-7. To be noted: MCF7, continuous presence of compound 4 or 7 days, at least three experiments, read-out: Average IC50.
Text: as §1, §2, §3

Experiment [4] concerns MDA-MB-231 human breast cancer cell line. Nature of the experiment: Cell growth inhibition assay (methylene blue), MDA-MB-231. The settings on record: continuous presence of compound 4 or 7 days, at least three experiments, read-out: Average IC50.
Text: as §1, §2, §3

The subject of experiment [5] is MDA-MB-435 human breast cancer cell line. Nature of the experiment: Cell growth inhibition assay (methylene blue), MDA-MB-435. To be noted: continuous presence of compound 4 or 7 days, at least three experiments, read-out: Average IC50.
Text: as §1, §2, §3

The subject of experiment [6] is MDA-MB-468 human breast cancer cell line. In words: Cell growth inhibition assay (methylene blue), MDA-MB-468. To be noted: continuous presence of compound 4 or 7 days, at least three experiments, read-out: Average IC50.
Text: as §1, §2, §3

In experiment [7] the test system is HCC38 human breast cancer cell line. In words: Cell growth inhibition assay (methylene blue), HCC38. The settings on record: continuous presence of compound 4 or 7 days, at least three experiments, read-out: Average IC50.
Text: as §1, §2, §3

Experiment [8] relates to HCC70 human breast cancer cell line. In words: Cell growth inhibition assay (methylene blue), HCC70. To be noted: continuous presence of compound 4 or 7 days, at least three experiments, read-out: Average IC50.
Text: as §1, §2, §3

Experiment [9] deals with HCC1143 human breast cancer cell line. Nature of the experiment: Cell growth inhibition assay (methylene blue), HCC1143. To be noted: continuous presence of compound 4 or 7 days, at least three experiments, read-out: Average IC50.
Text: as §1, §2, §3

Experiment [10] concerns HCC1419 human breast cancer cell line. In words: Cell growth inhibition assay (methylene blue), HCC1419. The settings on record: continuous presence of compound 4 or 7 days, at least three experiments, read-out: Average IC50. The protocol:
as §2, §3

The test system of experiment [11] is HCC1428 human breast cancer cell line. In words: Cell growth inhibition assay (methylene blue), HCC1428. The settings on record: continuous presence of compound 4 or 7 days, at least three experiments, read-out: Average IC50.
Text: as §1, §2, §3

The test system of experiment [12] is HCC1500 human breast cancer cell line. In words: Cell growth inhibition assay (methylene blue), HCC1500. To be noted: continuous presence of compound 4 or 7 days, at least three experiments, read-out: Average IC50.
Text: as §1, §2, §3

Experiment [13] deals with HCC1806 human breast cancer cell line. In words: Cell growth inhibition assay (methylene blue), HCC1806. The settings on record: continuous presence of compound 4 or 7 days, at least three experiments, read-out: Average IC50.
Text: as §1, §2, §3

Experiment [14] has as its system HCC1954 human breast cancer cell line. Nature of the experiment: Cell growth inhibition assay (methylene blue), HCC1954. The settings on record: continuous presence of compound 4 or 7 days, at least three experiments, read-out: Average IC50.
Text: as §1, §2, §3

In experiment [15] the test system is HCC2218 human breast cancer cell line. In words: Cell growth inhibition assay (methylene blue), HCC2218. The settings on record: HC-2218, continuous presence of compound 4 or 7 days, at least three experiments, read-out: Average IC50.
Text: as §1, §2, §3

In experiment [16] the test system is UACC-812 human breast cancer cell line. In words: Cell growth inhibition assay (methylene blue), UACC-812. The settings on record: continuous presence of compound 4 or 7 days, at least three experiments, read-out: Average IC50.
Text: as §1, §2, §3

Experiment [17] relates to UACC-893 human breast cancer cell line. In words: Cell growth inhibition assay (methylene blue), UACC-893. To be noted: continuous presence of compound 4 or 7 days, at least three experiments, read-out: Average IC50.
Text: as §1, §2, §3

Experiment [18] concerns ZR-75-1 human breast cancer cell line. Nature of the experiment: Cell growth inhibition assay (methylene blue), ZR-75-1. The settings on record: continuous presence of compound 4 or 7 days, at least three experiments, read-out: Average IC50.
Text: as §1, §2, §3

Experiment [19] relates to ZR-75-30 human breast cancer cell line. Nature of the experiment: Cell growth inhibition assay (methylene blue), ZR-75-30. The settings on record: continuous presence of compound 4 or 7 days, at least three experiments, read-out: Average IC50.
Text: as §1, §2, §3

Experiment [20] deals with panel of 19 human breast cancer cell lines. In words: Cell growth inhibition assay, panel of 19 human breast cancer cell lines. To be noted: for fold-difference between IC50's in the most sensitive and the least sensitive cell line: panel of 19 human breast cancer cell lines.
Text: as §1, §2
Antiproliferative effects of four tubulin-binding anticancer agents were evaluated by a methylene blue-based cell growth inhibin assay in a panel of 19 human breast cancer cell lines. The following agents were used in this study: halichondrin analog E7389, hemiasterlin analog E7974, vinblastine, and paclitaxel. Each IC50 determination was conducted in at least three separate experiments. A presence of multidrug resistance efflux pump (P-glycoprotein or PgP) could markedly affect sensitivity of cell lines to test agents and thus mask correlations between beta-tubulin expression and cell lines' sensitivity to test agents. Cell lines were therefore tested for evidence of PgP expression by monitoring effects of the PgP blocker verapamil (used at a 10 μM concentration) on paclitaxel sensitivity. No evidence for PgP expression was found in any of the cell lines tested (Table 4). […] Inter-drug correlations were seen between sensitivities to the three microtubule polymerization inhibitors E7974, E7389, and vinblastine, but not between the microtubule polymerization stabilizer paclitaxel.

For `CC[C@]1(O)C[C@@H]2CN(CCc3c([nH]c4ccccc34)[C@@](C(=O)OC)(c3cc4c(cc3OC)N(C)[C@H]3[C@@](O)(C(=O)OC)[C@H](OC(C)=O)[C@]5(CC)C=CCN6CC[C@]43[C@@H]65)C2)C1` [Vinblastine, vinblastine], the half-inhibitory concentration (IC50) in experiment [1] is 1.05 nM; in experiment [2], 1.15 nM; in experiment [3], 0.89 nM; in experiment [4] it was 1.6 nM; in experiment [5] it was 0.43 nM; in experiment [6], 0.82 nM. The half-maximal inhibitory concentration (IC50) was determined as 0.73 nM in experiment [7]; 0.8 nM in [8]; 0.53 nM in experiment [9]; 1.7 nM in [10]; 0.55 nM in [11]; 0.56 nM in [12]. The IC50 came to 0.86 nM in [13]; 0.7 nM in experiment [14]; 1.56 nM in experiment [15]; 1.11 nM in [16]; 1.32 nM in experiment [17]; 1.72 nM in experiment [18]. The 50% inhibitory concentration (IC50) in experiment [19] was 2.4 nM. In addition, the “fold-difference between IC50's in the most sensitive and the least sensitive cell line” value (“fold-difference between IC50's” below) in [20] is listed as 5.6 fold.
As for `C/C(=C\[C@H](C(C)C)N(C)C(=O)[C@@H](NC(=O)[C@H]1CCCCN1C(C)C)C(C)(C)C)C(=O)O` [E7974], the “fold-difference between IC50's” value in experiment [20] was determined as 6.8 fold.
On to `C=C1C[C@@H]2CC[C@@]34C[C@H]5O[C@H]6[C@@H](O3)[C@H]3O[C@H](CC[C@@H]3O[C@H]6[C@H]5O4)CC(=O)C[C@@H]3[C@@H](OC)[C@@H](C[C@H](O)CN)O[C@H]3C[C@H]3O[C@@H](CC[C@@H]1O2)C[C@@H](C)C3=C` [E7389], for which the IC50 in [1] came out at 0.65 nM; in experiment [2] it was 0.82 nM; in [3] it was 1.45 nM; in experiment [4], 1.75 nM; in experiment [5], 0.29 nM; in experiment [6] it was 0.45 nM. Moreover, the IC50 in [7] was 0.4 nM; in experiment [8] it was 0.63 nM; in experiment [9], 0.43 nM; in [10], 1.59 nM; in experiment [11], 0.53 nM; in experiment [12] it was 0.56 nM. The IC50 in experiment [13] was determined as 0.74 nM; in experiment [14] it was 0.37 nM; in experiment [15], 1.14 nM; in [16] it was 1.17 nM; in experiment [17] it was 0.31 nM; in experiment [18] it was 1.19 nM. The IC50 in experiment [19] is 1.8 nM; in [20] (range over 19 human breast cancer cell lines) it was 0.29 to 1.8 nM. The “fold-difference between IC50's” value in experiment [20] is 6.2 fold.

The IC50 is the concentration needed to halve the response being measured.

The record behind these values is US20060148014A1, “Tubulin isotype screening in cancer therapy using hemiasterlin analogs” (priority 2004, published 2006).
